Experimental data taken from article PMC6154745 (Oncotarget, 2018).
Marks after values point to notes of the source that are not given here.

Legend:
stomach miRNAs = test: miRNA expression (microarray), Study 3, stomach; format: in vivo, ICR (CD-1) mice
Protocol: (§1) Each group was composed of 10 female mice.
(§2) The urine was collected for 8 h and pooled from the mice belonging to each experimental group in Study 3 by using metabolic cages during the day preceding euthanasia of mice. Immediately after sacrifice, a bronchoalveolar lavage (BAL) was performed and used for preparing BALF, and the blood was collected and used for preparing serum. BALF and blood serum were pooled within each experimental group. The organs reported in the general design of the studies were collected, as previously described. Immediately after collection, each organ or fluid was immersed in RNAlater and kept at -80°C for miRNA analysis. Portions of the organs used in Study 1 and Study 2 were stored at -80°C for evaluating DNA damage.
(§3) For evaluating the expression of pulmonary miRNAs we used the 7th generation miRCURY LNA™ microRNA Array (Exiqon), which contains 3,100 capture probes covering human, mouse and rat miRNAs. In particular, this array covers 1,135 mouse miRNAs, i.e. the 88.6% of the 1,281 mouse miRNAs listed in miRBase 19. Microarray analyses were carried out as previously described.
(§4) Treatment-related differences in body weights, in the frequency of MN NCE, and in the levels of pulmonary DNA adducts and 8-oxo-dGuo, all of them expressed as means ± SE within each group of mice, were evaluated for statistical significance by ANOVA followed by Student's t test for unpaired data. miRNA microarray data, after local background subtraction, log transformation, and normalization were analyzed by GeneSpring software (Agilent, Santa Clara, CA), and expression data were median centered by using the GeneSpring normalization option.

blood serum miRNAs [1] = test: miRNA expression (microarray), Study 3, blood serum; format: in vivo, ICR (CD-1) mice
Protocol: as §1, §2, §3, §4

urine miRNAs = test: miRNA expression (microarray), Study 3, urine; format: in vivo, ICR (CD-1) mice
Protocol: as §1, §2, §3, §4

spleen miRNAs = test: miRNA expression (microarray), Study 3, spleen; format: in vivo, ICR (CD-1) mice
Protocol: as §1, §2, §3, §4

colon miRNAs = test: miRNA expression (microarray), Study 3, colon; format: in vivo, ICR (CD-1) mice
Protocol: as §1, §2, §3, §4

lung miRNAs = test: miRNA expression (microarray), Study 3, lung; format: in vivo, ICR (CD-1) mice
Protocol: as §1, §2, §3, §4

brain miRNAs = test: miRNA expression (microarray), Study 3, brain; format: in vivo, ICR (CD-1) mice; conditions: high dose
Protocol: as §1
as §2, with “damage. […]” for “damage.”
as §4

skeletal muscle miRNAs = test: miRNA expression (microarray), Study 3, skeletal muscle; format: in vivo, ICR (CD-1) mice
Protocol: as §1, §2, §3, §4

kidney miRNAs = test: miRNA expression (microarray), Study 3, kidney; format: in vivo, ICR (CD-1) mice
Protocol: as §1, §2, §3, §4

heart DNA = test: Bulky DNA adducts by 32P postlabeling, Study 2, heart; format: in vivo, ICR (CD-1) mice; conditions: for Bulky DNA adducts: Heart; for decrease of DNA adduct levels vs MCS-exposed mice without celecoxib / increase of DNA adduct levels over sham-exposed mice: heart
Protocol: as §1
(§5) DNA was extracted from tissue specimens (50 mg) collected individually from the lungs of 40 Swiss H mice used in Study 1 and from lungs, heart and liver of 80 ICR (CD-1) mice used in Study 2, as previously described. Bulky DNA adducts, after butanol enrichment, and 8-hydroxy-2’-deoxyguanosine (8-oxo-dGuo) were measured by ^32P postlabeling as previously described.

pulmonary miRNAs = test: Pulmonary miRNA expression (microarray), Study 1
Protocol: Ten mice per group (5 males and 5 females) were used. […] Twenty mice per group (10 males and 10 females) were used. […] Each group was composed of 10 female mice.
RNA was extracted from mouse organs (miRNeasy, Qiagen, Hilden, Germany) and body fluids (Exiqon's miRCURY™ RNA Isolation Kit – Biofluids (Exiqon, Vedbaek, Denmark) according to the manufacturers’ instructions. The quality of the RNA extracted was evaluated by spectrophotometric analyses using a fiber optic spectrophotometer (Nanodrop ND-1000).
For evaluating the expression of pulmonary miRNAs we used the 7th generation miRCURY LNA™ microRNA Array (Exiqon), which contains 3,100 capture probes covering human, mouse and rat miRNAs. In particular, this array covers 1,135 mouse miRNAs, i.e. the 88.6% of the 1,281 mouse miRNAs listed in miRBase 19. Microarray analyses were carried out as previously described [22].
Treatment-related differences in body weights, in the frequency of MN NCE, and in the levels of pulmonary DNA adducts and 8-oxo-dGuo, all of them expressed as means ± SE within each group of mice, were evaluated for statistical significance by ANOVA followed by Student's t test for unpaired data. miRNA microarray data, after local background subtraction, log transformation, and normalization were analyzed by GeneSpring software (Agilent, Santa Clara, CA), and expression data were median centered by using the GeneSpring normalization option. The statistical significance of the differences between experimental groups was evaluated by means of the GeneSpring ANOVA applied by using Bonferroni multiple testing correction. […] The overall variability of microarray data, as related to treatments, was evaluated by scatter-plot analysis (SPA), hierarchical cluster analysis (HCA), and principal component analysis (PCA).

liver miRNAs = test: miRNA expression (microarray), Study 3, liver; format: in vivo, ICR (CD-1) mice
Protocol: as §1, §2, §3, §4

BALF miRNAs = test: miRNA expression (microarray), Study 3, BALF; format: in vivo, ICR (CD-1) mice
Protocol: as §1, §2, §3, §4

heart miRNAs = test: miRNA expression (microarray), Study 3, heart; format: in vivo, ICR (CD-1) mice
Protocol: as §1, §2, §3, §4

blood serum miRNAs [2] = test: Blood serum miRNAs (microarray), Study 1; format: in vivo, Swiss H mice
lung DNA = test: 8-oxo-dGuo (oxidative DNA damage) in lung by 32P postlabeling, Study 1; format: in vivo, Swiss H mice; conditions: for 8-oxo-dGuo: lung
Protocol: as §1, §5

[3] = urine, low dose (20 mg/kg diet) vs sham
[4] = low dose (20 mg/kg diet) vs sham
[5] = celecoxib in MCS-exposed mice vs MCS

## Cc1ccc(-c2cc(C(F)(F)F)nn2-c2ccc(S(N)(=O)=O)cc2)cc1 [Celecoxib, 4-[5-(4-methylphenyl)-3-(trifluoromethyl)-1H-pyrazol-1-yl] benzene-1-sulfonamide]
Stomach miRNAs; MCS-exposed mice
  miR-125b downregulation: 9 fold
  miR-802-3p upregulation: 3 fold
  upregulated/downregulated miRNAs: 3/3
Stomach miRNAs; MCS-free mice
  miR-1964-5p downregulation: 4 fold
  upregulated/downregulated miRNAs: 2/12
Stomach miRNAs; high dose
  number of miRNAs modulated by celecoxib: 20
Blood serum miRNAs [1]; blood serum, MCS-exposed mice
  upregulated/downregulated miRNAs: 2/3
Blood serum miRNAs [1]; blood serum, MCS-free mice
  miR-1964-5p downregulation: 8 fold
  upregulated/downregulated miRNAs: 2/11
Blood serum miRNAs [1]; blood serum, high dose
  number of miRNAs modulated by celecoxib: 18
Blood serum miRNAs [1]; blood serum, low dose
  number of miRNAs modulated: 2
Blood serum miRNAs [1]; blood serum, low dose (20 mg/kg diet) vs sham
  miR30c-5p downregulation: 2.9 fold
Blood serum miRNAs [1]; blood serum, low dose (20 mg/kg diet), compared to MCS-exposed mice
  miR-185 downregulation: 2.1 fold
Blood serum miRNAs [1]; blood, high dose
  number of miRNAs modulated: 11
Urine miRNAs; urine, high dose
  number of miRNAs modulated: 3
Urine miRNAs; urine, low dose
  number of miRNAs modulated: 2
Urine miRNAs; [3]
  miR-290 downregulation: 2.4 fold
  miR-1945b downregulation: 2.4 fold
Urine miRNAs; urines, MCS-free mice
  upregulated/downregulated miRNAs: 0/3
Urine miRNAs; urines, high dose
  number of miRNAs modulated by celecoxib: 3
Spleen miRNAs; MCS-exposed mice
  upregulated/downregulated miRNAs: 1/7
Spleen miRNAs; MCS-free mice
  miR-30c-2-5p downregulation: 7 fold
  upregulated/downregulated miRNAs: 2/7
Spleen miRNAs; high dose
  number of miRNAs modulated by celecoxib: 17
Colon miRNAs; MCS-exposed mice
  upregulated/downregulated miRNAs: 0/2
Colon miRNAs; MCS-free mice
  miR-185-5p downregulation: 8 fold
  miR-301 downregulation: 6 fold
  upregulated/downregulated miRNAs: 1/4
Colon miRNAs; high dose
  number of miRNAs modulated by celecoxib: 7
Lung miRNAs
  miR-361 upregulation: 8 fold
Lung miRNAs; MCS-exposed mice
  upregulated/downregulated miRNAs: 0/1
Lung miRNAs; MCS-free mice
  upregulated/downregulated miRNAs: 14/0
Lung miRNAs; high dose
  number of miRNAs modulated by celecoxib: 15
Lung miRNAs; low dose
  number of miRNAs modulated: 3
Lung miRNAs; [4]
  miR-296 upregulation: 2.4 fold
  miR-551b upregulation: 2.2 fold
Lung miRNAs; low dose (20 mg/kg diet), compared to MCS-exposed mice
  miR185 downregulation: 2.8 fold
Brain miRNAs
  number of miRNAs modulated by celecoxib: 0
Skeletal muscle miRNAs; MCS-exposed mice
  miR-30e upregulation: 9 fold
  miR-125b downregulation: 11 fold
  miR-511 upregulation: 5 fold
  miR-695 downregulation: 6 fold
  miR-1964-5p downregulation: 5 fold
  upregulated/downregulated miRNAs: 6/10
Skeletal muscle miRNAs; MCS-free mice
  upregulated/downregulated miRNAs: 0/0
Skeletal muscle miRNAs; high dose
  number of miRNAs modulated by celecoxib: 16
Kidney miRNAs; MCS-exposed mice
  upregulated/downregulated miRNAs: 0/0
Kidney miRNAs; MCS-free mice
  miR-30c-2-3p downregulation: 14 fold
  miR-30c-2-5p downregulation: 13 fold
  miR-30e downregulation: 8 fold
  miR-185-5p downregulation: 25 fold
  miR-301 downregulation: 7 fold
  miR-802-3p downregulation: 6 fold
  miR-1964-5p downregulation: 7 fold
  upregulated/downregulated miRNAs: 7/20
Kidney miRNAs; high dose
  number of miRNAs modulated by celecoxib: 27
Heart DNA; F
  Bulky DNA adducts: 3.6 ± 0.37^c adducts/10^8 nucleotides
Heart DNA; M
  Bulky DNA adducts: 3.3 ± 0.18^c adducts/10^8 nucleotides
Heart DNA; M + F
  Bulky DNA adducts: 3.4 ± 0.17^c adducts/10^8 nucleotides
Heart DNA; combined genders
  decrease of DNA adduct levels vs MCS-exposed mice without celecoxib: 1.3 fold
  increase of DNA adduct levels over sham-exposed mice: 2.2 fold
Heart DNA; females
  decrease of DNA adduct levels vs MCS-exposed mice without celecoxib: 1.5 fold
  increase of DNA adduct levels over sham-exposed mice: 2.4 fold
Heart DNA; males (not statistically significant)
  decrease of DNA adduct levels vs MCS-exposed mice without celecoxib: 1.1 fold
Heart DNA; males
  increase of DNA adduct levels over sham-exposed mice: 2.1 fold
Pulmonary miRNAs; [5]
  number of pulmonary miRNAs significantly dysregulated: 11
  share of pulmonary miRNAs significantly dysregulated: 1.0%
Pulmonary miRNAs; vs sham-exposed mice
  number of pulmonary miRNAs downregulated: 2
  number of pulmonary miRNAs upregulated: 19
Liver miRNAs; MCS-exposed mice
  upregulated/downregulated miRNAs: 2/1
Liver miRNAs; MCS-free mice
  miR-30c-2-3p downregulation: 9 fold
  miR-30e downregulation: 10 fold
  miR-802-3p downregulation: 7 fold
  upregulated/downregulated miRNAs: 0/15
Liver miRNAs; high dose
  number of miRNAs modulated by celecoxib: 18
BALF miRNAs; MCS-exposed mice
  miR-1964-5p downregulation: 3 fold
  upregulated/downregulated miRNAs: 0/2
BALF miRNAs; MCS-free mice
  miR-1964-5p downregulation: 6 fold
  upregulated/downregulated miRNAs: 2/3
BALF miRNAs; high dose
  number of miRNAs modulated by celecoxib: 7
Heart miRNAs; MCS-exposed mice
  upregulated/downregulated miRNAs: 0/1
Heart miRNAs; MCS-free mice
  upregulated/downregulated miRNAs: 0/2
Heart miRNAs; high dose
  number of miRNAs modulated by celecoxib: 3
Blood serum miRNAs [2]; MCS-exposed mice given celecoxib
  number of blood miRNAs on which the effect of MCS was counteracted: 7
Blood serum miRNAs [2]; vs sham-exposed mice, 2-fold variation and P < 0.05
  number of miRNAs significantly modulated in blood serum: 18
Lung DNA; F
  8-oxo-dGuo: 2.3 ± 0.28 8-oxo-dGuo/10^5 nucleotides
Lung DNA; M
  8-oxo-dGuo: 1.6 ± 0.29 8-oxo-dGuo/10^5 nucleotides
Lung DNA; M + F
  8-oxo-dGuo: 1.9 ± 0.22 8-oxo-dGuo/10^5 nucleotides
Lung DNA; mouse, in vivo
  increase of pulmonary 8-oxo-dGuo levels vs sham-exposed mice: did not affect
